In the assay the test system is anti-human detection antibody. Briefly: CD3ε peptide ELISA, alkaline phosphatase based, peptides coated on Costar high binding plates. Set-up: species or system chicken. Particulars: single peptide coated on plate, plate blank subtracted, both peptides tested under the same conditions. The text has this: The capture antibody of the CDR assay was produce by inoculation with 2 peptides. The sequence of these two peptides is AKAKPVTRGAGA (SEQ ID NO: 1) and LYSGLNQRRI (SEQ ID NO: 2) respectively. To determine the key immune-dominate region of the peptide, 12 variants of original peptide 1 (SEQ ID NO: 1) and 10 variants of original peptide 2 (SEQ ID NO: 2) were made with alanine substitution (or valine when alanine is the original amino acid). These were produced by GenScript, shipped, in solid form, at room temperature, to our lab and were dissolved in 1 ml of 0.05 TBS buffer.
Single peptides were coated on to Costar high binding 96 well plates at a concentration of 10 μg and 2 μg in 0.05 TBS buffer pH 7.4 in quadruplicate and tested in an alkaline phoshotase based ELISA. Plate blanks were subtracted from the optical densities obtained for each peptide. The peptides are compared to the original by percent of original signal. As noted in Table 1 the twelfth substitution was both an alanine at position twelve and a glutamic acid for threonine at position seven. This was an inadvertent oversight by the manufacturer.
The results from using a coating concentration of 2 μg/ml were similar.
The OD for original peptide 1 (SEQ ID NO: 1) was 1.5 and peptide 2 (SEQ ID NO: 2) elicited a signal of 1.0 when tested under the same conditions.
On the technique in general: ELISA stands for enzyme-linked immunosorbent assay.

The text below walks through data of patent US8569450B2, “CD3 epsilon immunogens and antibodies” (Health Research Inc., priority 2010, dated 2013).

For “AKAKPVTRGAGA (listed as Homo sapiens) [original peptide 1, CD3 epsilon immunogen peptide, 12AA]”, the “OD (optical density) by ELISA” value was found to be 1.5.

In the case of “LYSGLNQRRI (listed as Homo sapiens) [peptide 2, CD3 epsilon immunogen peptide, 10AA]”, the “OD (optical density) by ELISA” value was 1.0.
